This passage reports IC50 results from patent US20210122739A1, “NOVEL SULFONAMIDE CARBOXAMIDE COMPOUNDS” (Inflazome Limited, priority 2017, published 2021).

Test [1] has as its target T1, NLRP3 (Homo sapiens, UniProt Q96P20). Briefly: THP-1 cells pyroptosis assay. It is filed as cell-based. Further details: Seed THP-1 cells (25,000 cells/well) containing 1.0 μg/ml LPS; host or cells: THP-1 cells, LPS-primed, nigericin-stimulated. Particulars: 1.0 μg/ml LPS, nigericin 5 μM, resazurin readout. An excerpt:
It is well established that the activation of NLRP3 leads to cell pyroptosis and this feature plays an important part in the manifestation of clinical disease (Yan-gang Liu et al., Cell Death & Disease, 2017, 8(2), e2579; Alexander Wree et al., Hepatology, 2014, 59(3), 898-910; Alex Baldwin et al., Journal of Medicinal Chemistry, 2016, 59(5), 1691-1710; Ema Ozaki et al., Journal of Inflammation Research, 2015, 8, 15-27; Zhen Xie & Gang Zhao, Neuroimmunology Neuroinflammation, 2014, 1(2), 60-65; Mattia Cocco et al., Journal of Medicinal Chemistry, 2014, 57(24), 10366-10382; T. Satoh et al., Cell Death & Disease, 2013, 4, e644). Therefore, it is anticipated that inhibitors of NLRP3 will block pyroptosis, as well as the release of pro-inflammatory cytokines (e.g. IL-1β) from the cell.
THP-1 cells (ATCC #TIB-202) were grown in RPMI containing L-glutamine (Gibco #11835) supplemented with 1 mM sodium pyruvate (Sigma #S8636) and penicillin (100 units/ml)/streptomycin (0.1 mg/ml) (Sigma #P4333) in 10% Fetal Bovine Serum (FBS) (Sigma #F0804). The cells were routinely passaged and grown to confluency (˜10^6 cells/ml). On the day of the experiment, THP-1 cells were harvested and resuspended into RPMI medium (without FBS). The cells were then counted and viability (>90%) checked by Trypan blue (Sigma #T8154). Appropriate dilutions were made to give a concentration of 625,000 cells/ml. To this diluted cell solution was added LPS (Sigma #L4524) to give a 1 μg/ml Final Assay Concentration (FAC). 40 μl of the final preparation was aliquoted into each well of a 96-well plate. The plate thus prepared was used for compound screening.
The following method step-by-step assay was followed for compound screening. • 1. Seed THP-1 cells (25,000 cells/well) containing 1.0 μg/ml LPS in 40 μl of RPMI medium (without FBS) in 96-well, black walled, clear bottom cell culture plates coated with poly-D-lysine (VWR #734-0317) • 2. Add […] compound (8 points half-log dilution, with 10 μM top dose) or vehicle (DMSO 0.1% FAC) to the appropriate wells • 3. Incubate for 3 hrs at 37° C. in 5% CO2 • 4. Add 5 μl nigericin (Sigma #N7143) (FAC 5 μM) to all wells • 5. Incubate for 1 hr at 37° C. and 5% CO2 • 6. At the end of the incubation period, spin plates at 300×g for 3 mins and remove supernatant • 7. Then add 50 μl of resazurin (Sigma #R7017) (FAC 100 μM resazurin in RPMI medium without FBS) and incubate plates for a further 1-2 hrs at 37° C. and 5% CO2 • 8. Plates were read in an Envision reader at Ex 560 nm and Em 590 nm • 9. IC50 data is fitted to a non-linear regression equation (log inhibitor vs response-variable slope 4-parameters)

Test [2] deals with T1, NLRP3. Briefly: Human whole blood IL1β release assay. It is filed as cell-based. Set-up: Plate out 80 μl of whole blood containing 1 μg/ml of LPS; from tissue; host or cells: human whole blood from healthy donors, LPS-primed, nigericin-stimulated. Particulars: 1 μg/ml LPS, nigericin 10 μM, IL-1β by AlphaLisa, read-out: HWB IC50. How it is done:
For systemic delivery, the ability to inhibit NLRP3 when the compounds are present within the bloodstream is of great importance. For this reason, the NLRP3 inhibitory activity of a number of compounds in human whole blood was investigated in accordance with the following protocol.
Human whole blood in Li-heparin tubes was obtained from healthy donors from a volunteer donor panel. • 1. Plate out 80 μl of whole blood containing 1 μg/ml of LPS in 96-well, clear bottom cell culture plate (Corning #3585) • 2. Add 10 μl compound (8 points half-log dilution with 10 μM top dose) or vehicle (DMSO 0.1% FAC) to the appropriate wells • 3. Incubate for 3 hrs at 37° C., 5% CO2 • 4. Add 10 μl Nigericin (Sigma #N7143) (10 μM FAC) to all wells • 5. Incubate for 1 hr at 37° C., 5% CO2 • 6. At the end of the incubation period, spin plates at 300×g for 5 mins to pellet cells and remove 20 μl of supernatant and add to 96-well v-bottom plates for IL-1β analysis (note: these plates containing the supernatants can be stored at −80° C. to be analysed at a later date) • 7. IL-1β was measured according to the manufacturer protocol (Perkin Elmer-AlphaLisa IL-1 Kit AL220F-5000) • 8. IC50 data is fitted to anon-linear regression equation (log inhibitor vs response-variable slope 4-parameters)
(In general: Bead proximity is the source of the signal in Alpha formats.)

T1 sequence (Q96P20 whole entry): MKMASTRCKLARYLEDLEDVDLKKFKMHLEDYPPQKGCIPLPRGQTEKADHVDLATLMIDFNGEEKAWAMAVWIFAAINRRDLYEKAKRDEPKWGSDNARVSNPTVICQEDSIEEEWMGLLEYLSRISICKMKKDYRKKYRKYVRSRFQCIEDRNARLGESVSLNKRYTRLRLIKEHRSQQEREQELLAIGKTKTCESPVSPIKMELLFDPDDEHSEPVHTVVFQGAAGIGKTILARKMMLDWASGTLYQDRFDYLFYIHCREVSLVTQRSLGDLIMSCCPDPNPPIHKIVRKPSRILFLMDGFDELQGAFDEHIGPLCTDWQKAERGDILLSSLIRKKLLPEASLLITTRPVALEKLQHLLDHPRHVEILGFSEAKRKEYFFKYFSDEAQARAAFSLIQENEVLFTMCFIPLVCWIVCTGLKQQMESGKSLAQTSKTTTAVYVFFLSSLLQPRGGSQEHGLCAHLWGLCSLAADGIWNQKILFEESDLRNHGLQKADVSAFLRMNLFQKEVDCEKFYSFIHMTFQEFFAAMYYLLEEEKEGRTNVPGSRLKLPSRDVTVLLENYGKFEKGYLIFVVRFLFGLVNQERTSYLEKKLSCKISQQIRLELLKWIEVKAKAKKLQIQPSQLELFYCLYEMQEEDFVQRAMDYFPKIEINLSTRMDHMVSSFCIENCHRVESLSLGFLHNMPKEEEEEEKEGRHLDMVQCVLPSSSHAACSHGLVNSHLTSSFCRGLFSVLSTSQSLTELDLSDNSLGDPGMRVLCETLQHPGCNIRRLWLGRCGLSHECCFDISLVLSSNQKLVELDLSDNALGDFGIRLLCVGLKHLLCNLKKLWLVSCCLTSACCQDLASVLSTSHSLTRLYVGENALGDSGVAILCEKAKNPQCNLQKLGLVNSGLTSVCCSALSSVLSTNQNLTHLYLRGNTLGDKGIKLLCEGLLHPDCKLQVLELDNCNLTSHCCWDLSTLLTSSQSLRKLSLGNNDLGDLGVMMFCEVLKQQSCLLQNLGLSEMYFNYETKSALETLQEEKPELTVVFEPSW

Broadly, the IC50 is the concentration that gives 50% inhibition. Regarding `CN(C)C(=O)Cn1ccc(S(=O)(=O)NC(=O)Nc2c3c(cc4c2CCC4)CCC3)n1` [Example 1, 2-(3-(N-((1,2,3,5,6,7-Hexahydro-s-indacen-4-yl)carbamoyl)sulfamoyl)-1H-pyrazol-1-yl)-N,N-dimethylacetamide], the results for the IC50 in test [1] and in test [2] were 160 to 640 nM and 3200 to 10000 nM, respectively. For `CNC(=O)Cn1ccc(S(=O)(=O)NC(=O)Nc2c3c(cc4c2CCC4)CCC3)n1` [Example 2, 2-(3-(N-((1,2,3,5,6,7-Hexahydro-s-indacen-4-yl)carbamoyl)sulfamoyl)-1H-pyrazol-1-yl)-N-methylacetamide], the results for the IC50 in test [1] and in test [2] were 160 to 640 nM and 1600 to 3200 nM, respectively. As for `CN(C(=O)c1cc(S(=O)(=O)NC(=O)Nc2c3c(cc4c2CCC4)CCC3)nn1C)C1CCC1` [Example 7, N-Cyclobutyl-3-(N-((1,2,3,5,6,7-hexahydro-s-indacen-4-yl)carbamoyl)sulfamoyl)-N,1-dimethyl-1H-pyrazole-5-carboxamide], the concentration for half-maximal inhibition (IC50) in test [1] lay within 160 to 640 nM; in test [2], 3200 to 10000 nM. For `Cn1nc(S(=O)(=O)NC(=O)Nc2c3c(cc4c2CCC4)CCC3)cc1C(=O)N(CCO)CCO` [Example 15, 3-(N-((1,2,3,5,6,7-Hexahydro-s-indacen-4-yl)carbamoyl)sulfamoyl)-N,N-bis(2-hydroxyethyl)-1-methyl-1H-pyrazole-5-carboxamide], the IC50 is 160 to 640 nM in test [1] and under 400 nM in test [2]. On to `CN(CCCO)C(=O)c1cc(S(=O)(=O)NC(=O)Nc2c3c(cc4c2CCC4)CCC3)nn1C` [Example 18, 3-(N-((1,2,3,5,6,7-Hexahydro-s-indacen-4-yl)carbamoyl)sulfamoyl)-N-(3-hydroxypropyl)-N,1-dimethyl-1H-pyrazole-5-carboxamide], for which the figures for the IC50 in test [1] and in test [2] were 160 to 640 nM and 1600 to 3200 nM, respectively.

For `CCN(CCO)C(=O)c1cc(S(=O)(=O)NC(=O)Nc2c3c(cc4c2CCC4)CCC3)nn1C` [Example 20, N-Ethyl-3-(N-((1,2,3,5,6,7-hexahydro-s-indacen-4-yl)carbamoyl)sulfamoyl)-N-(2-hydroxyethyl)-1-methyl-1H-pyrazole-5-carboxamide], the half-maximal inhibitory concentration (IC50) was in the range of 160 to 640 nM in test [1] and 800 to 1600 nM in test [2]. Consider `COCCN(CCOC)C(=O)c1cc(S(=O)(=O)NC(=O)Nc2c3c(cc4c2CCC4)CCC3)nn1C` [Example 26, 3-(N-((1,2,3,5,6,7-Hexahydro-s-indacen-4-yl)carbamoyl)sulfamoyl)-N,N-bis(2-methoxyethyl)-1-methyl-1H-pyrazole-5-carboxamide], for which the IC50 in test [1] was in the range of 40 to 160 nM; in test [2], 400 to 800 nM. `CC(C)c1cc(F)cc(C2CCOCC2)c1NC(=O)NS(=O)(=O)c1cc(C(=O)N(C)C)n(C)n1` [Example 33, 3-(N-((4-Fluoro-2-isopropyl-6-(tetrahydro-2H-pyran-4-yl)phenyl)carbamoyl)sulfamoyl)-N,N,1-trimethyl-1H-pyrazole-5-carboxamide]: the IC50 in test [2] lay within 400 to 800 nM.

Regarding `CC(C)c1cc(F)cc(-c2cccnc2)c1NC(=O)NS(=O)(=O)c1cc(C(=O)N(C)C)n(C)n1` [Example 41, 3-(N-((4-Fluoro-2-isopropyl-6-(pyridin-3-yl)phenyl)carbamoyl)sulfamoyl)-N,N,1-trimethyl-1H-pyrazole-5-carboxamide], the IC50 in test [2] is under 400 nM. `CC(C)NC(=O)c1cc(S(=O)(=O)NC(=O)Nc2c3c(cc4c2CCC4)CCC3)nn1C` [Example 46, 3-(N-((1,2,3,5,6,7-Hexahydro-s-indacen-4-yl)carbamoyl)sulfamoyl)-N-isopropyl-1-methyl-1H-pyrazole-5-carboxamide]: the IC50 in test [1] was 2560 to 10000 nM. Still for that read-out and setting: the result for `CCN(CC)C(=O)c1cc(S(=O)(=O)NC(=O)Nc2c(C(C)C)cc(F)cc2C(C)C)nn1C` [Example 48, N,N-Diethyl-3-(N-((4-fluoro-2,6-diisopropylphenyl)carbamoyl)sulfamoyl)-1-methyl-1H-pyrazole-5-carboxamide] reads 160 to 640 nM; that for `CCN(CC)C(=O)c1cc(S(=O)(=O)NC(=O)Nc2c(C(C)C)cccc2C(C)C)nn1C` [Example 57, 3-(N-((2,6-Diisopropylphenyl)carbamoyl)sulfamoyl)-N,N-diethyl-1-methyl-1H-pyrazole-5-carboxamide], 640 to 2560 nM. For `Cn1nc(S(=O)(=O)NC(=O)Nc2c3c(cc4c2CCC4)CCC3)cc1C(=O)N1CCCC1` [Example 59, N-((1,2,3,5,6,7-Hexahydro-s-indacen-4-yl)carbamoyl)-1-methyl-5-(pyrrolidine-1-carbonyl)-1H-pyrazole-3-sulfonamide], the IC50 in test [1] was in the range of 640 to 2560 nM. In test [1], `Cn1nc(S(=O)(=O)NC(=O)Nc2c3c(cc4c2CCC4)CCC3)cc1C(=O)N1CC(F)C1` [Example 61, 5-(3-Fluoroazetidine-1-carbonyl)-N-((1,2,3,5,6,7-hexahydro-s-indacen-4-yl)carbamoyl)-1-methyl-1H-pyrazole-3-sulfonamide] showed an IC50 of 640 to 2560 nM. In test [1], `CC(C)c1cccc(C(C)C)c1NC(=O)NS(=O)(=O)c1cc(C(=O)N2CCCC2)n(C)n1` [Example 63, N-((2,6-Diisopropylphenyl)carbamoyl)-1-methyl-5-(pyrrolidine-1-carbonyl)-1H-pyrazole-3-sulfonamide] gave an IC50 of 640 to 2560 nM.

`CNC(=O)c1cc(S(=O)(=O)NC(=O)Nc2c3c(cc4c2CCC4)CCC3)nn1C` [Example 66, 3-(N-((1,2,3,5,6,7-Hexahydro-s-indacen-4-yl)carbamoyl)sulfamoyl)-N,1-dimethyl-1H-pyrazole-5-carboxamide] came in with an IC50 in test [1] of 640 to 2560 nM. For the molecule `CC(C)c1cccc(C(C)C)c1NC(=O)NS(=O)(=O)c1cc(C(=O)N(C)CCO)n(C)n1` [Example 75, 3-(N-((2,6-Diisopropylphenyl)carbamoyl)sulfamoyl)-N-(2-hydroxyethyl)-N,1-dimethyl-1H-pyrazole-5-carboxamide], in test [1], the IC50 is 640 to 2560 nM.

In test [1], `Cn1nc(S(=O)(=O)NC(=O)Nc2c3c(cc4c2CCC4)CCC3)cc1C(=O)NCCO` [Example 76, 3-(N-((1,2,3,5,6,7-Hexahydro-s-indacen-4-yl)carbamoyl)sulfamoyl)-N-(2-hydroxyethyl)-1-methyl-1H-pyrazole-5-carboxamide] gave an IC50 of 2560 to 10000 nM.

As for `COCCNC(=O)c1cc(S(=O)(=O)NC(=O)Nc2c3c(cc4c2CCC4)CCC3)nn1C` [Example 77, 3-(N-((1,2,3,5,6,7-Hexahydro-s-indacen-4-yl)carbamoyl)sulfamoyl)-N-(2-methoxyethyl)-1-methyl-1H-pyrazole-5-carboxamide], the IC50 in test [1] was in the range of 2560 to 10000 nM.
